Measured values as given in ChEMBL document CHEMBL1122560, “Adrenal medulla imaging agents: a structure-distribution relationship study of radiolabeled aralkylguanidines” (J Med Chem, 1984).

experiment: Ratio of the concentration levels determined for the adrenal medulla to the liver after 72 hr; [Adrenal Medulla] / [liver]; type: ADME, tissue-based

Compared with `N=C(N)NCc1ccc(I)c(I)c1`, `N=C(N)NCc1cccc(I)c1` [IOBENGUANE] is higher in Ratio: 115 for the first, 720 for the second.

First: N=C(N)Nc1cccc(I)c1
Second: N=C(N)NCCc1cccc(I)c1
The Ratio of the first is lower: 45 for the first, 190 for the second.

Compared with `N=C(N)NCc1ccccc1I`, `N=C(N)NCc1ccccc1` is higher in Ratio: 130 for the first, 2700 for the second.

Compared with `N=C(N)NCc1cc(I)cc(I)c1`, `N=C(N)NCc1ccc(I)cc1` is higher in Ratio: 5.2 for the first, 545 for the second.

Going from `N=C(N)NCCc1ccc(I)cc1` to `CC(N=C(N)N)c1ccc(I)cc1` (racemic), the Ratio falls from 200 to 190.

First: CC(N=C(N)N)c1cccc(I)c1 (racemic)
Second: N=C(N)N [GUANIDINE]
The Ratio of the first is higher: 430 for the first, 1.4 for the second.

Compared with `CC(N=C(N)N)c1cccc(I)c1` (single isomer, unassigned; (-)), `N=C(N)NCCN1CCCCCCC1` [GUANETHIDINE] is lower in Ratio: 300 for the first, 70 for the second.

`CC(N=C(N)N)c1cccc(I)c1` (stereo in doubt; 8b(+)) showed a Ratio of 390.
